Legend:
[1] = Saturated solubility study; format: physicochemical; details: in squalene-based NE compared with PBS solvent
Description: In the saturated solubility study, R848 or IVM were dissolved in PBS or formulated in NE at 2 mg/ml and incubated at room temperature for 24 hours. Insoluble solid drugs were pelleted down by centrifugation. Supernatants were collected for concentration analysis. R848 concentrations were quantified by UV-Vis spectrometry at 320 nm using a NanoDrop 2000 spectrophotometer. IVM concentrations were quantified by high-performance liquid chromatography (HPLC) using an isocratic mobile phase composed of water/methanol/acetonitrile (8:36:56, v/v/v), an C18 column (Kromasil 150-C-18, 4.6×150 mm), and PDA detection at 230 nm.

[2] = system: MC38 cells; assay: In vitro gene regulation by R848 NE, IVM NE, R848-IVM NE; format: cell-based, murine; details: 8 μM, 24 hours
Description: MC38 cells were seeded at 3×10^5 cells/well in 6-well plates 24 hours before treatments. […] R848 and IVM were both treated at 8 μM, either as free drug solution or in squalene NE. Total RNA was extracted using TRI reagent (Zymo Research) per manufacturer protocol. cDNA was prepared by high-capacity cDNA reverse transcription kit (Invitrogen, Waltham, MA, USA), and real-time qPCR (RT-qPCR) was done using SsoAdvanced™ Universal SYBRR Green Supermix (Bio-Rad Laboratories, Hercules, CA) on a QuantStudio 7 Flex Real-time PCR System. RT-qPCR primers for murine Calreticulin, Hmgb1, Lc3b, and Actb were purchased from Sigma-Aldrich. Actb was selected as the housekeeping gene control. The relative amount of RNA level was calculated and compared according to the 2−ΔΔCt method.

[3] = Evaluation of squalene as a fusogenic oil (OD500/OD600 of anionic nanoemulsions); format: physicochemical; details: oil/DOPC/CHEMS nanoemulsions; versus medium-chain and long-chain triglyceride
Description: To compare the fusogenicities of different oils, simple anionic nanoemulsions were prepared. The compositions evaluated were: oil/DOPC/CHEMS (30:40:40 mole/mole). Oil was selected from squalene, medium-chain triglyceride (MCT) from Abitec (Captex 300), long-chain triglyceride (LCT, soybean oil from Sigma-Aldrich). DOPC: dioleoylphosphatidylcholine, CHEMS: cholesterol hemisuccinate. The various formulations were prepared at pH 8.0 in PBS and then diluted into various buffers with different pH values and incubated for 5 min at room temperature prior to OD measurement. OD500 and OD600 were measured to indicate particle size, with larger particle size indicating increased fusogenicity.

fusogenicity [3]	Compound	increase of solubility [1]	Calreticulin mRNA level [2]
–	CC[C@H](C)[C@H]1O[C@]2(CC[C@@H]1C)C[C@@H]1C[C@@H](C/C=C(\C)[C@@H](O[C@H]3C[C@H](OC)[C@@H](O[C@H]4C[C@H](OC)[C@@H](O)[C@H](C)O4)[C@H](C)O3)[C@@H](C)/C=C/C=C3\CO[C@@H]4[C@H](O)C(C)=C[C@@H](C(=O)O1)[C@]34O)O2 [IVM, Ivermectin]	100 fold	did not show significant Calreticulin regulation
–	CCOCc1nc2c(N)nc3ccccc3c2n1CC(C)(C)O [R848, Resiquimod]	2 fold	–
improved fusogenicity	CC(C)=CCC/C(C)=C/CC/C(C)=C/CC/C=C(\C)CC/C=C(\C)CCC=C(C)C [squalene]	–	–

From US20250235403A1, “COMPOSITIONS AND METHODS OF THE DELIVERY OF ACTIVE AGENTS INCLUDING NUCLEIC ACIDS” (Ohio State Innovation Foundation, priority 2021, published 2025)
